Reference: paper PMC9360078, “Pre-clinical 2D and 3D toxicity response to a panel of nanomaterials; comparative assessment of NBM-induced liver toxicity” (Drug Delivery and Translational Research, 2022)

What was measured:
[1] = tested on: HepG2 cells (2D monocultures); experiment: NBM exposure, LDH cytotoxicity assay, 2D monocultures; format: cell-based, Human; conditions: 125 µM, 24 h
Experimental: Stock NBM suspensions were vortexed and appropriate dilutions made in cell culture medium. For NBM exposures, briefly, cell culture medium was removed from the wells of culture plates and wells washed with pre-warmed PBS. For adenosine 5′-triphosphate (ATP) quantification and lactate dehydrogenase (LDH) assay, 100 µl of each NBM concentration diluted in culture medium was added to each well for three incubation/exposure timepoints, 24, 48 and 72 h.
The LDH assay is a cytotoxicity assay which is used to assess the level of plasma membrane damage in a cell population. […] LDH release in the supernatants (an indirect measure of cytotoxicity responses) was assessed using the Thermo Scientific Pierce LDH Cytotoxicity Assay Kit (Fisher Scientific, Ireland), following the manufacturers’ protocols. […] Absorbance values at wavelengths (λ) equal to 490 and 680 nm were read using an Epoch microplate reader (Biotek, Mason Technologies, Ireland). The LDH activity was calculated using Eq. (1), whereas the percentage (%) cytotoxicity was extrapolated from Eq. (2).1 LDHactivity=Absorbanceλ=490nm-Absorbanceλ=680nm 2 Cytotoxicity%=LDHactivityTreatedculture-LDHactivityNT/LDHactivityPT-LDHactivityNT […]

HepG2 spheroids = experiment: Sensitivity to hepatotoxins, CellTiter-Glo ATP viability, 3D spheroids; format: cell-based; conditions: Homo sapiens, 4-day repeat dosing (day 3 and day 5), readout day 7, estimated from graphs
Experimental: (§1) For 2D monolayers, 10,000 HepG2 cells were seeded on 96-well plates (Thermo Fisher, Ireland). Cells were left to adhere for 24 h before being treated with chosen NBMs for desired timepoints. For HepG2 spheroid formation, cells were seeded in CellStar® 96 well ultra-low attachment (ULA) cell-repellent plates (Grenier, BioOne, UK) at a density of 1000 cells per well in 100 µl medium (Fig. 1). After 3 days of incubation at 37 °C with 5% CO2, medium was changed with care taken not to disturb the spheroids.
(§2) Sensitivity of spheroid cultures to a panel of common hepatotoxins was tested using a protocol detailed previously in works from Gaskell et al. and Bell et al. and using information listed in the MIP-DILI training set. The hepatotoxins included acetaminophen, diclofenac, trovafloxacin and fialuridine. HepG2 spheroids grown for 3 days and 10 days were exposed to the hepatotoxins, diluted in cell culture medium, for 4 days, with an addition dose administered 2 days after the first exposure. Concentrations tested for each compound were the following: • Acetaminophen: 10000, 5000, 1250, 625, 300, 150, 75 µg/ml • Diclofenac: 400, 200, 100, 50, 25, 12.5, 6.25 µg/ml • Trovafloxacin: 500, 200, 100, 50, 25, 12.5, 6.25 µg/ml • Fialuridine: 200, 100, 50, 25, 12.5, 6.25, 3.15 µg/ml
(§3) Viability of the treated cultures was determined using the CellTiter-Glo® assay (Thermo Fisher, Ireland) as per the manufacturer’s protocol. Culture medium alone with CellTiter-Glo® reagent was used as a blank control and subtracted from all sample values. Cell viability was calculated as a percentage of untreated vehicle control samples. A dose-dependent response curve was plotted, and estimations were made about what concentration of drug would cause a 50% reduction in cell viability (IC50 value). Experiments were run in triplicate (n = 3).
(§4) Spheroids and HepG2 monolayers were treated with varying concentrations of four common hepatotoxic compounds, namely acetaminophen, diclofenac, fialuridine and trovafloxacin. Following a protocol detailed in Gaskell et al., a 4-day repeat-dosing regimen was used to expose 3D spheroids, i.e. spheroids were cultured for 3 days before being treated with hepatotoxic compounds for 2 days, before doing is repeated again on day 5. Spheroids then remained in culture untouched until ATP quantification assay was undertaken on day 7. […] Each of the four chosen compounds was more toxic in 3D spheroids than in 2D monocultures, although differences were not statistically significant. The concentration causing a 50% reduction in cell viability (IC50) was estimated for each drug tested from the graphs, and is reported in Table 7. A comparison to data extracted from the scientific literature is also reported.

HepG2 2D monolayer = experiment: Sensitivity to hepatotoxins, CellTiter-Glo ATP viability, 2D monolayer; format: cell-based; conditions: Homo sapiens, 24-h acute dosing, estimated from graphs
Experimental: as §1, §2, §3, §4

Row | Structure (SMILES) | Maximal cell death [1] [%] | IC50 (HepG2 spheroids) [µM] | IC50 (HepG2 2D monolayer) [µM]
1 | CC(C)[C@@H]1NC(=O)[C@H](C)OC(=O)[C@@H](C(C)C)NC(=O)[C@@H](C(C)C)OC(=O)[C@H](C(C)C)NC(=O)[C@H](C)OC(=O)[C@@H](C(C)C)NC(=O)[C@@H](C(C)C)OC(=O)[C@H](C(C)C)NC(=O)[C@H](C)OC(=O)[C@@H](C(C)C)NC(=O)[C@@H](C(C)C)OC1=O [valinomycin] | < 50 | – | –
2 | O=C(O)Cc1ccccc1Nc1c(Cl)cccc1Cl [Diclofenac, diclofenac] | – | > 250 | > 400
3 | O=c1[nH]c(=O)n([C@@H]2O[C@H](CO)[C@@H](O)[C@@H]2F)cc1I [Fialuridine, fialuridine] | – | > 200 | > 200
4 | CC(=O)Nc1ccc(O)cc1 [Acetaminophen, acetaminophen] | – | > 8000 | > 10000
5 | N[C@@H]1[C@H]2CN(c3nc4c(cc3F)c(=O)c(C(=O)O)cn4-c3ccc(F)cc3F)C[C@@H]12 [Trovafloxacin, trovafloxacin] | – | > 100 | > 400
